Like-named read-outs stand apart in the source and are kept apart here.
Tests used:
[1] = system: E. coli ST131; experiment: MIC by broth microdilution; assay type: cell-based, Escherichia coli; settings: for MIC E. coli ST131: peptidomimetic alone
Description: (§1) Minimal inhibitory concentrations (MICs) of peptidomimetics, antibiotics and their combinations were determined by broth microdilution according to the Clinical Laboratory Standards Institute performance standards (Clinical and Laboratory Standards Institute, [2013]). […] Since rifampicin and azithromycin mainly are used to treat infections with Gram-positive pathogens only CLSI clinical breakpoints were available for such bacteria. […] Potentiation of additional antibiotics by peptidomimetics was determined by using commercial 96-well plates containing varied concentrations of standard antibiotics (COMPAN1F; Trek Diagnostic Systems Inc.). The peptidomimetics were added immediately prior to inoculation with pathogen, and then MICs were determined as above. The MICs of peptidomimetic/antibiotic combinations were determined according to the method above, and the concentration ratios were selected based upon checkerboard results with 2:1 and 1:4 ratio of peptidomimetic with rifampicin or azithromycin, respectively. Minimal bactericidal concentrations (MBCs) were determined by using growth-curve assay plates. MIC plates were prepared as above, and then the plates were incubated at 37°C with continuous shaking. Growth was recorded at 10 min intervals as optical density (OD) at 600 nm during 24 h. At 24 h, for wells without growth, a sample was diluted 10-fold in sterile saline (0.9% sodium chloride) and plated onto MHA, following CLSI guidelines (Clinical and Laboratory Standards Institute, [1999]).

[2] = MTS/PMS cell viability assay; assay type: cell-based; settings: human, HepG2 hepatocytes, 1 h exposure, read-out: Cytotoxicity HepG2 EC50 ± SD
Description: (§2) NIH 3T3 and HepG2 cells (both from ATCC, Manassas, VA, USA) were cultured in flat-bottomed 96-well MicroWell™ plates (NUNC, Roskilde, Denmark) at seeding densities of ~23,000 and ~22,000 cells/well, respectively, and then cultured for 22–24 h under standard culturing conditions (37°C, 5% CO2, humidified air) to reach 80–90% confluence. NIH 3T3 were cultured in Dulbecco's modified Eagle's medium (DMEM) supplemented with 10% (v/v) newborn-calf serum (NCS) (Gibco, Paisly, UK), while HepG2 were cultured in Eagle's minimum essential medium (EMEM) supplemented with 10% (v/v) fetal bovine serum (FBS, Gibco, Paisly, UK), sodium pyruvate (1 mM), and non-essential amino acids (1%, v/v). Both culturing media were further supplemented with penicillin (100 U/mL), streptomycin (100 μg/mL), and L-glutamine (2 mM).
(§3) Effect on cell viability was determined in NIH 3T3 fibroblasts and HepG2 hepatocytes by using the MTS/PMS assay measuring metabolic activity. Briefly, the adhered cells were washed with 37°C Hanks' balanced salt solution (HBSS from Sigma-Aldrich, St. Louis, MO, USA), containing 10 mM HEPES (AppliChem, Darmstadt, Germany), and adjusted to pH 7.4, and were then exposed for 1 h to 100 μL of test compound(s) dissolved in the appropriate culturing medium without serum for each cell line. After exposure the cells were washed with HBSS containing 10 mM HEPES (pH 7.4) and 100 μL of an MTS/PMS solution, consisting of 240 μg/mL MTS (Promega, Madison, WI, USA) and 2.4 μg/mL PMS (SigmaAldrich, Buchs, Switzerland) in HBSS, was added to the cells, which then were incubated for 1 h at 37°C with horizontal shaking under light protection. Absorbance was measured at 492 nm by using a POLARstar OPTIMA plate reader (BMG Labtech, Offenburg, Germany). The relative viability was calculated according to Equation (1) with absorbance values obtained after incubation of cells with test compound; incubation with SDS (0.2%, w/v in medium) defined 100% cell death (Abspos), while the absorbance of cells incubated with medium defined 0% cell death (Absneg).
(§4) (1) Relative viability(%)=(Abssample-Abspos)/(Absneg-Abspos)×100%
(§5) EC50 values were calculated by using GraphPad Prism 7 (GraphPad Software, La Jolla, CA, USA) via fitting of the relative cell viability to the concentration of the test compound by using Equation (2):
(§6) (2) Relative viability(%)= Top-Bottom/1+10^(LogIC50-Log[peptidomimetic]) ×Hill slope
(§7) With top and bottom representing the mean highest and lowest observed values, respectively. The Hill slope represents a factor for the steepness of the linear part of the curve. In order to prevent erroneous calculation, the top and bottom values were constrained to 100 and 0%, respectively. Data were collected from technical triplicates. The selectivity index was calculated as the average effect on cell viability (EC50 values for HepG2 and NIH 3T3 cells) divided by the MIC.

[3] = system: K. pneumoniae ST258; experiment: Screening of peptidomimetic-antibiotic combinations (growth / growth inhibition); assay type: cell-based, Klebsiella pneumoniae; parameters: key to Growth in combination with RIF / Growth in combination with AZM: Growth (+); growth inhibition (–); settings: for Growth in combination with AZM: peptidomimetic 0.5 μM + azithromycin 1 μg/mL; for Growth in combination with RIF: peptidomimetic 0.5 μM + rifampicin 0.5 μg/mL
[4] = system: MDR E. coli ST131; experiment: as above; assay type: cell-based, Escherichia coli; parameters: key to Growth in combination with RIF / Growth in combination with AZM: Growth (+); growth inhibition (–); settings: for Growth in combination with AZM: peptidomimetic 0.5 μM + azithromycin 1 μg/mL; for Growth in combination with RIF: peptidomimetic 0.5 μM + rifampicin 0.5 μg/mL
[5] = system: NIH 3T3 and HepG2 cells; experiment: Effect on viability of mammalian cells (both cell lines); assay type: cell-based, mouse and human
Description: as §2, §3, §4, §5, §6
With top and bottom representing the mean highest and lowest observed values, respectively. The Hill slope represents a factor for the steepness of the linear part of the curve. […] The selectivity index was calculated as the average effect on cell viability (EC50 values for HepG2 and NIH 3T3 cells) divided by the MIC.

[6] = MTS/PMS cell viability assay; assay type: cell-based, mouse; settings: mouse, NIH 3T3 fibroblasts, 1 h exposure, read-out: Cytotoxicity NIH 3T3 EC50 ± SD
Description: as §2, §3, §4, §5, §6, §7

[7] = system: K. pneumoniae ST258; experiment: MIC by broth microdilution; assay type: cell-based, Klebsiella pneumoniae; settings: for Selectivity Index (SI) K. pneumoniae ST258: average of EC50 (HepG2, NIH 3T3) divided by MIC; for MIC K. pneumoniae ST258: peptidomimetic alone
Description: as §1

[8] = system: P. aeruginosa ATCC 27853; experiment: MIC by broth microdilution; assay type: cell-based, Pseudomonas aeruginosa; settings: for MIC P. aeruginosa ATCC 27853: peptidomimetic alone
Description: as §1

[9] = system: E. coli ST131; settings: for Antibiotic MIC in combination (AZM): MIC of azithromycin combined with the labelled peptidomimetic; for Antibiotic MIC in combination (RIF): MIC of rifampicin combined with the labelled peptidomimetic; for Peptidomimetic MIC alone: checkerboard
Description: (§8) The potential synergistic effects in peptidomimetic-antibiotic combinations were assessed by using a two-dimensional checkerboard assay (Garcia, [2010]). Briefly, twofold dilutions of peptide and antibiotic were prepared in MBH II media along the X- and Y-axis, respectively, in 96-well plates. The inoculum was added to the plates, and subsequently these were incubated for 18–20 h. All steps for inoculum preparation and broth microdilution were in accordance with the CLSI guidelines (Clinical and Laboratory Standards Institute, [2013]). The fractional inhibitory concentration index (FICI) was calculated as [MICA(A+B)/MICA(alone)] + [MICB(A+B)/MICB(alone)], where MICA(A+B) represents the MIC of antibiotic (A) in combination with peptidomimetic (B), while MICB(A+B) represents the MIC of peptidomimetic (B) in combination with antibiotic (A). MICA(alone) and MICB(alone) represent the MIC of each compound individually. FICI values of ≤0.5 were interpreted as synergy.

[10] = system: P. aeruginosa ATCC 27853; settings: for Antibiotic MIC in combination (RIF): MIC of rifampicin combined with the labelled peptidomimetic; for Peptidomimetic MIC alone: checkerboard; for Reduction of the MIC of azithromycin: P. aeruginosa, sub-MIC concentrations of peptidomimetic
Description: as §8

[11] = system: K. pneumoniae ST258; settings: for Antibiotic MIC in combination (AZM): MIC of azithromycin combined with the labelled peptidomimetic; for Antibiotic MIC in combination (RIF): MIC of rifampicin combined with the labelled peptidomimetic; for Peptidomimetic MIC alone: checkerboard
Description: as §8

[12] = P. aeruginosa ATCC 27853, combined with AZM
[13] = P. aeruginosa ATCC 27853, combined with RIF
[14] = average of EC50 (HepG2, NIH 3T3) divided by MIC
[15] = 0.5 μM peptidomimetic + 0.5 μg/mL rifampicin

Row | SMILES | MIC E. coli ST131 [1] | EC50 at 1 h [2] | Growth in combination with AZM [3] | Growth in combination with RIF [3] | Growth in combination with AZM [4] | Growth in combination with RIF [4] | EC50 [5] | EC50 at 1 h [6] | Selectivity Index (SI) K. pneumoniae ST258 [7] | MIC K. pneumoniae ST258 [7] | MIC P. aeruginosa ATCC 27853 [8] | Antibiotic MIC in combination (AZM) [9] | Antibiotic MIC in combination (RIF) [9] | Peptidomimetic MIC alone [9] | Peptidomimetic MIC in combination ([9]; combined with AZM) | Peptidomimetic MIC in combination ([9]; combined with RIF) | Antibiotic MIC in combination (RIF) ([10]; P. aeruginosa ATCC 27853) | Peptidomimetic MIC alone ([10]; P. aeruginosa ATCC 27853) | Peptidomimetic MIC in combination [10, 12] | Peptidomimetic MIC in combination [10, 13] | other results
1 | C[C@@H](c1ccccc1)N(CCC(N)=O)C(=O)[C@H](CCCCNC(=N)N)NC(=O)CCN(C(=O)[C@H](CCCCN)NC(=O)CCN(C(=O)[C@H](CCCCNC(=N)N)NC(=O)CCN(C(=O)[C@H](CCCCN)NC(=O)CCN(C(=O)[C@H](CCCCNC(=N)N)NC(=O)CCN(C(=O)[C@H](CCCCN)NC(=O)CNCCN)[C@@H](C)c1ccccc1)[C@@H](C)c1ccccc1)[C@@H](C)c1ccccc1)[C@@H](C)c1ccccc1)[C@@H](C)c1ccccc1 [Peptidomimetic 25, NDab-Lys-βNspe-hArg-βNspe)3-NH2] | 2 µM | 85 ± 3.06 µM | + | + | – | – | 80 to 170 µM | 167 ± 5.53 µM | (16) | 8 µM | 8 µM | 0.5 µg/mL | 0.5 µg/mL | 2 µM | 0.25 µM | 0.25 µM | 0.06 µg/mL | 8 µM | 1 µM | 1 µM | Reduction of the MIC of azithromycin [10]: 32- to 512 fold; Antibiotic MIC in combination (AZM) [11]: 8 µg/mL; Antibiotic MIC in combination (RIF) [11]: 0.06 µg/mL; Peptidomimetic MIC alone [11]: 8 µM; Peptidomimetic MIC in combination ([11]; combined with AZM): 0.5 µM; Peptidomimetic MIC in combination ([11]; combined with RIF): 1 µM
2 | C[C@@H](c1ccccc1)N(CCC(N)=O)C(=O)[C@H](CCCCNC(=N)N)NC(=O)CCN(C(=O)[C@H](CCCCN)NC(=O)CCN(C(=O)[C@H](CCCCNC(=N)N)NC(=O)CCN(C(=O)[C@H](CCCCN)NC(=O)CCN(C(=O)[C@H](CCCCNC(=N)N)NC(=O)CCN(C(=O)[C@H](CCCCN)NC(=O)CNCCCNCCCCNCCCN)[C@@H](C)c1ccccc1)[C@@H](C)c1ccccc1)[C@@H](C)c1ccccc1)[C@@H](C)c1ccccc1)[C@@H](C)c1ccccc1 [Peptidomimetic 26, Spermine-(Lys-βNspe-hArg-βNspe)3-NH2] | 1 µM | 59.6 ± 0.71 µM | + | – | – | – | 50 to 60 µM | 53.2 ± 2.94 µM | (7) | 8 µM | 2 µM | 1 µg/mL | 0.5 µg/mL | 1 µM | 0.25 µM | 0.25 µM | 0.06 µg/mL | 2 µM | 1 µM | 0.5 µM | Selectivity Index (SI) E. coli ST131 [1, 14]: (56); Screening result with rifampicin [3, 15]: inhibit growth; Screening result with rifampicin [4, 15]: inhibit growth; Selectivity Index (SI) P. aeruginosa ATCC 27853 [8, 14]: (28); Antibiotic MIC in combination (AZM) ([10]; P. aeruginosa ATCC 27853, MIC of azithromycin combined with the labelled peptidomimetic): 0.5 µg/mL; Reduction of the MIC of azithromycin [10]: 32- to 512 fold; Antibiotic MIC in combination (CLI) ([11]; MIC of CLI combined with the labelled peptidomimetic): 4 µg/mL; Antibiotic MIC in combination (AZM) [11]: 8 µg/mL; Antibiotic MIC in combination (RIF) [11]: 0.06 µg/mL; Peptidomimetic MIC alone [11]: 8 µM; Peptidomimetic MIC in combination ([11]; combined with AZM): 0.5 µM; Peptidomimetic MIC in combination ([11]; combined with CLI): 0.5 µM; Peptidomimetic MIC in combination ([11]; combined with RIF): 0.5 µM
